1 compound from patent publication US20100069316A1, “TREATMENT FOR MULTIPLE MYELOMA” (Ares Trading S.A., priority 2006, published 2010) can be followed below.

Where two headings read alike, the source gives them in different places.

One assay concerns 14 myeloma cell lines. Kind of assay: Cell proliferation assay (tritiated thymidine incorporation), panel of myeloma cell lines. The format is cell-based. The following applies: 14 human myeloma cell lines, 0.04-10 μM, 4 days culture. The protocol: Myeloma cell lines were passaged every 3-4 days in RPMI640 and 10% fetal calf serum (FCS). For the IL-6 dependent cell lines, 2 ng/ml of freshly thawed IL-6 (Abcys, France) was added at the beginning of the culture. Each cell line has unique phenotypic and HLA characteristics that make it possible to periodically check their identity.
The following cell lines were obtained in B. Klein's laboratory: XG-1, XG-2, XG-3, XG-4, XG-6, XG-7, XG-11, XG-12, XG-13, XG-14, XG-19, XG-20. (Zhang, et al., 1994; Rebouissou, et al., 1998)
RPMI8226 and L363 cell lines were purchased from ATCC.
Myeloma cells were harvested in the exponential growth phase (at day 3 after culture passage when the cell concentration is around 5×10^5 cells/ml). Cells were washed twice, cultured for 3 hours in RPMI1640 and 10% FCS, washed twice. This makes it possible to remove cell-bound growth factors (in particular recombinant IL-6). […]
Cells were cultured for 4 days. […] Cells were then extracted with a cell collector and the thymidine incorporation was determined using a beta cell counter.
For each experiment, the mean tritiated thymidine incorporations (mean values determined on three culture wells) were plotted against the logarithmic concentrations of the compound. The curves were fitted with exponential regression, which was determined using the concentrations defining the inhibition response (usually 3-4 concentrations). […]

Another assay concerns L363 myeloma cell line. In words: Cell proliferation assay (tritiated thymidine incorporation), L363. It counts as cell-based, human. The following applies: alone or with fixed Velcade/Melphalan; for IC50: concentration of compound A yielding 50% inhibition of proliferation, read-out: IC50; for IC90: concentration of compound A yielding 90% inhibition of proliferation. How it is done: (§1) Myeloma cells were harvested in the exponential growth phase (at day 3 after culture passage when the cell concentration is around 5×10^5 cells/ml). Cells were washed twice, cultured for 3 hours in RPMI1640 and 10% FCS, washed twice. This makes it possible to remove cell-bound growth factors (in particular recombinant IL-6). Then cells are plated in 96-well flat-bottomed microplates at various concentrations depending on their doubling time: • 5×10^3 cells/well in 100 μl for the cell lines: XG-1, XG-7 • 10^4 cells/well in […] for the cell lines: XG-2, XG-4, XG-6, XG-11, PRMI8226, L363 • 2×10^4 cells/well in 100 μl for the cell lines: XG-3, XG-12, XG-13, XG-14, XG-19, XG-20
(§2) The culture medium used were: • PRMI1640, 10% FCS and 0.5 ng/ml of IL-6 for XG-1, XG-2, XG-3, XG-4, XG-6, XG-7, XG-11, XG-12, XG-13, XG-19, XG-20 cells • X-VIVO20 and 0.5 ng/ml IL-6 for XG-14 cells • PRMI1640 and 10% FCS for RPMI8226 and L363 cells
(§3) The diluted compounds, DMSO or control culture medium were added in 100 μl at the start of the culture. Three culture wells were done for one compound dilution and the experiments were done twice (finally six culture wells for one compound dilution).
(§4) Cells were cultured for 4 days. Eight hours before the end of the culture, 0.5 μCi of tritiated thymidine were added in 50 μl of RPMI1640 and 10% FCS. Cells were then extracted with a cell collector and the thymidine incorporation was determined using a beta cell counter.
(§5) For each experiment, the mean tritiated thymidine incorporations (mean values determined on three culture wells) were plotted against the logarithmic concentrations of the compound. The curves were fitted with exponential regression, which was determined using the concentrations defining the inhibition response (usually 3-4 concentrations).
(§6) The concentrations yielding 50% and 90% inhibition of the proliferation of myeloma cells were determined with these regression curves.
(§7) The concentration yielding 10% (IC10) or 50% (IC50) inhibition of the myeloma cell lines were determined and the data are listed in Table 2.
(§8) Compound A was tested in combination with melphalan or Velcade. Increasing concentration of compound A (0, 0.01, 0.03, 0.12, 0.37, 1.1, 3.1, 10, 30 μM) were applied on 4 myeloma cell lines alone or in combination with Velcade or melphalan at concentration yielding around 10% or 50% inhibition.

In a further assay the test system is XG3 myeloma cell line. In words: Cell proliferation assay (tritiated thymidine incorporation), XG3. The following applies: Homo sapiens, XG3, alone or with fixed Velcade/Melphalan. The format is cell-based, human. The protocol:
as §1, §2, §3, §4, §5, §6, §7, §8

The test system of the next assay is XG-3 myeloma cell line. In words: Cell numeration, XG-3. It counts as cell-based, human. The following applies: day 3 of culture. How it is done: (§9) Two myeloma cell lines (XG-3 and XG-12) that are sensitive to compound A (1-(4-{4-[4-(4-chlorophenyl)-pyrimidin-2-ylamino]-benzoyl}-piperazin-1-yl)-ethanone) were selected for the study. To assess the effect of compound A on myeloma cell survival, the percentage apoptotic cells was determined using binding of annexin V to apoptotic cells. The effect of compound A on the cell cycle was assessed by evaluating the percentage of cells in the S phase of the cell cycle by incorporation of BrdU-FITC. Apoptosis, cell cycle and cell numeration were evaluated daily on a four day culture period on the cell lines using the IC10, IC50 and I90 respective doses of compound A.

For the next assay, the system named is XG-12 myeloma cell line. In words: Cell numeration, XG-12. The following applies: day 3 of culture. The format is cell-based, human. The protocol: as §9

As for `CC(=O)N1CCN(C(=O)c2ccc(Nc3nccc(-c4ccc(Cl)cc4)n3)cc2)CC1` [Compound A, 1-(4-{4-[4-(4-Chloro-phenyl)-pyrimidin-2-ylamino]-benzoyl}-piperazin-1-yl)-ethanone], the “inhibition of the proliferation of myeloma cell lines” value in the assay with 14 myeloma cell lines is recorded as “full inhibition of the proliferation of 13 out 14 human myeloma cells”. For the same compound, the IC50 in the assay with L363 myeloma cell line (Homo sapiens, L-363, L363) was 2.33 µM; in the assay on L363 myeloma cell line (L363), 1.79 µM; in the assay on XG3 myeloma cell line (concentration of compound A yielding 50% inhibition of proliferation, read-out: IC50), 1.49 µM. Further, the IC90 came out at 10.1 µM with L363 myeloma cell line (Homo sapiens, L-363, L363); 9.41 µM with L363 myeloma cell line (L363); 6.35 µM in the assay on XG3 myeloma cell line (concentration of compound A yielding 90% inhibition of proliferation). For the same compound, the “Cells (×10^6/ml) cell counts” value in the assay with XG-3 myeloma cell line (XG-3, compound A at IC10 concentration) is reported as 0.68 ×10^6/ml; with XG-3 myeloma cell line (XG-3, compound A at IC50 concentration), 0.47 ×10^6/ml; in the assay with XG-3 myeloma cell line (XG-3, compound A at IC90 concentration) it was 0.29 ×10^6/ml; in the assay with XG-12 myeloma cell line (XG-12, compound A at IC50 concentration) it was 0.35 ×10^6/ml; with XG-12 myeloma cell line (XG-12, compound A at IC90 concentration), 0.11 ×10^6/ml.
